From US12173283B2, “Cell model for in vitro evaluation of compound-induced skin sensitization and a constructing method therefor” (South China University Of Technology, priority 2017, dated 2024)

Experiments:
[1] = tested on: HMOX1 gene (luciferase reporter); experiment: Luciferase expression assay in HMOX1-luciferase knock-in HaCaT monoclone No. 38 (detection of compound sensitization); assay type: cell-based; conditions: human, HMOX1-luciferase knock-in HaCaT cells, clone No. 38, detection range of concentration 4 μM˜1000 μM, 48 h incubation, compared with negative control group, read-out: expression of luciferase (fold induction), highest reached
Procedure: 4. Analysis of sensitization of compounds after gene knock-in Sensitization of compounds was detected using clone No. 38.
Pre-cultured cells were centrifuged followed by removal of the supernatant, and were resuspended in fresh complete medium. The cell concentration was calculated with a cell counter after dilution for 10 times, and finally was adjusted to 50,000 cells/well. 200 μL of the cell solution was added to each well of a white opaque 96-well plate to ensure that the number of cells per well was substantially the same. The cell was incubated for 24 h at 37° C. in a 5% CO2 incubator. After 24 h, the medium was removed, and a working solution was prepared with 1% FBS medium. […] After 48 h, luciferase expression was measured and cell viability was detected using MTT.
• (1) 48 hours after treatment, the medium containing the reagent was discarded, and the plate was washed twice with PBS; • (2) 100 μL of PBS was added to each well, and then an equal volume of the luciferase substrate was added; • (3) The plate was shaken at 200 rpm for 2 min to fully lyse the cells; • (4) A Tecan Infinite® 200 Pro multi-function microplate reader selecting luminescence, integration 0.5s was used and the reading was recorded. […]

[2] = tested on: HMOX1 gene target site; experiment: T7EI digestion identification of target site cleavage by sgRNA co-transfected with hCas9 into 293T cells; assay type: cell-based; conditions: co-transfected with hCas9 plasmid, 72 hours, FIG. 1
Procedure: sgRNA-1, sgRNA-10, sgRNA-13 plasmid and hCas9 plasmid were co-transfected into 293T cells respectively. After 72 hours, the genome was extracted and expanded with the primers in Table 2 on the target site, and the PCR product was identified by T7EI digestion.
The sgRNA-1, sgRNA-10, and sgRNA-13 plasmids were co-transfected into the 293T cells with a H-Cas9 plasmid (using liposome transfection), and the transfection steps were as follows: • (1) The prior medium was discarded, and 2 mL of fresh medium for incubation was added; • (2) 0.5 μg of the sgRNA recombinant plasmid and 0.5 μg of the hCas9 plasmid were dissolved in 100 μL of DMEM (H), 3 μL of a liposome transfection reagent was diluted to 100 μL, and the diluted liposome transfection reagent was added to the diluted plasmid solution. The mixture was gently blew evenly, formulated into a transfection complex, and reacted at room temperature for 15 min; • (3) The transfection complex was dropped into 6 wells, and reacted at 37° C. for 5 h. Then the reaction solution was discarded, and fresh medium was added for cultivation. Genome Extraction Process
PCR amplification of sgRNA-1, sgRNA-10, and sgRNA-13 was carried out using the extracted genome after transfection as a template; PCR amplification was performed using the wild type (WT) as a template and primers with SEQ ID NO: 6-7 as shown in Table 2. […]

| Molecule | fold induction at 48 h [1] | cleavage of the target site (T7EI digestion) [2] |
| --- | --- | --- |
| Sc1nc2ccccc2s1 [2-mercaptobenzothiazole] | ≤ 30 | – |
| sgRNA-13: specific sgRNA near the stop codon of HMOX1 gene, sequence GCTTTATGCCATGTGAATGCAGG, Exon 5 (expressed or natural sequence; the letters are possibly those of the target site) | – | can effectively cleave the target site |
| OCC=Cc1ccccc1 [cinnamyl alcohol] | ≤ 21 | – |
| sgRNA-1: specific sgRNA near the stop codon of HMOX1 gene, sequence TTAACAGGTGGGCGTGCATCAGG, Exon 5 (expressed or natural sequence) | – | can effectively cleave the target site |
